According to patent publication US20260183303A1, “PDK1 REGULATORY COMPOUND AND COMPOSITION CONTAINING THE SAME” (PROVIBIO CO., LTD., priority 2024, published 2026):

What was measured:
[1] = system: Human B Lymphocyte cell line, SU-DHL-8; experiment: Relative cell viability (CCK-8), SU-DHL-8; format: cell-based; conditions: for Relative cell viability (%): 48 hours, untreated cells (DMSO) = 100%
Procedure: Human-derived B lymphoma cell line SU-DHL-8 (Cat. #CRL-2961) purchased from ATCC was cultured in RPMI-1640 medium containing […], 100 U/mL penicillin, and 100 μg/mL streptomycin.
The cell culture medium was then harvested, centrifuged at 1,300 rpm for 5 minutes, and the supernatant was removed. The cells were resuspended in the same medium and dispensed into a 96-well plate (Costar 96-well cell culture plate, Corning) at 90 μL per well, resulting in the conditions specified in Table 5.
Then, 10 μL of CCK-8 was added to each well, and the plates were incubated again at 37° C. in a 5% CO2 incubator for 4 hours.
In other words, when the survival rate of untreated cells (DMSO) is set at 100%, the relative cell survival rate in each group treated with the drug at different concentrations is indicated.

[2] = system: T cells isolated from mouse spleens; experiment: T cell proliferation inhibition (CFSE flow cytometry, anti-CD3/anti-CD28 activation); format: cell-based, C57BL/6 mice; conditions: mouse spleen T cells, CD3/CD28 activated, cultured three days
Procedure: To verify the T cell proliferation inhibitory effect of the compounds according to the present invention, the following experiment was performed based on flow cytometry analysis using carboxyfluorescein diacetate succinimidyl ester (CFSE), a fluorescent dye that binds to intracellular molecules via covalent bonds.
Spleens were extracted from 7-week-old C57BL/6 mice, ground, and then separated into single cells using a strainer ([…], SPL). Red blood cells were removed using ACK (Ammonium-Chloride-Potassium) lysis buffer to isolate white blood cells.
Finally, using a MACS Magnetic Stand and LS column, T cells were isolated from the spleen.
The T cells isolated from the spleen were resuspended in 1 mL of free medium (RPMI-1640+200 U/mL penicillin+200 μg/mL streptomycin), and 0.3 μL of CFSE (10 mM) was added. The mixture was incubated at 37° C. for 5 minutes.
Free medium (10 mL) was added to stop the reaction, and the cells were centrifuged to obtain the cell pellet.
RPMI 1640 medium containing 10% FBS, 100 U/mL penicillin, 100 μg/mL streptomycin, and resuspended the cells. The cells were then seeded into a 96-well plate at a density of 2×10^5 cells per well and activated with CD3 and CD28 antibodies ([…]) to activate T cells.
The compound diluted in DMSO was added at concentrations of 10 nM, 100 nM, 1 μM, […], 30 μM, and 50 µM, with three wells per concentration, and cultured at 37° C. and 5% CO2 for three days. The cells were then analyzed using a FACS Canto instrument.
The proliferation inhibition rate (%) was calculated using the following formula: […]

| Compound | Relative cell viability (%) ([1]; SU-DHL-8, 1 μM) | Relative cell viability (%) ([1]; SU-DHL-8, 10 μM) | Relative cell viability (%) ([1]; SU-DHL-8, 30 μM) | Relative cell viability (%) ([1]; SU-DHL-8, 50 μM) | Proliferation inhibition rate (%) ([2]; 10 nM) | Proliferation inhibition rate (%) ([2]; 100 nM) | Proliferation inhibition rate (%) ([2]; 1 μM) | Proliferation inhibition rate (%) ([2]; 10 μM) | Proliferation inhibition rate (%) ([2]; 30 μM) | Proliferation inhibition rate (%) ([2]; 50 μM) | viability at 1 µM ([1]; Homo sapiens, SU-DHL-8, 48 h, read-out: Relative cell viability (%), SU-DHL-8, 1 μM, untreated cells (DMSO) = 100%) | viability at 10 µM ([1]; Homo sapiens, SU-DHL-8, 48 h, read-out: Relative cell viability (%), SU-DHL-8, 10 μM, untreated cells (DMSO) = 100%) | viability at 30 µM ([1]; Homo sapiens, SU-DHL-8, 48 h, read-out: Relative cell viability (%), SU-DHL-8, 30 μM, untreated cells (DMSO) = 100%) | viability at 50 µM ([1]; Homo sapiens, SU-DHL-8, 48 h, read-out: Relative cell viability (%), SU-DHL-8, 50 μM, untreated cells (DMSO) = 100%) | inhibition at 0.01 µM ([2]; Mus musculus, T-cell, 72 h, 10 nM, read-out: Proliferation inhibition rate (%)) | inhibition at 0.1 µM ([2]; Mus musculus, T-cell, 72 h, 100 nM, read-out: Proliferation inhibition rate (%)) | inhibition at 1 µM ([2]; Mus musculus, T-cell, 72 h, 1 μM, read-out: Proliferation inhibition rate (%)) | inhibition at 10 µM ([2]; Mus musculus, T-cell, 72 h, 10 μM, read-out: Proliferation inhibition rate (%)) | inhibition at 30 µM ([2]; Mus musculus, T-cell, 72 h, 30 μM, read-out: Proliferation inhibition rate (%)) | inhibition at 50 µM ([2]; Mus musculus, T-cell, 72 h, 50 μM, read-out: Proliferation inhibition rate (%)) |
| --- | --- | --- | --- | --- | --- | --- | --- | --- | --- | --- | --- | --- | --- | --- | --- | --- | --- | --- | --- | --- |
| Nc1ncccc1C(=O)NCCCCCCCCCCCCN1CCN(Cc2ccc(F)cc2)CC1 [Compound 27, 2-Amino-N-(12-(4-(4-fluorobenzyl)piperazin-1-yl)dodecyl) nicotinamide] | 6.24% | 4.97% | 2.03% | 0.56% | 2.27% | 83.33% | 100.00% | 100.00% | 100.00% | 100.00% |  |  |  |  |  |  |  |  |  |  |
| CC(C)(C)OC(=O)N[C@H]1CCN(CCCCCCCCCCCCNC(=O)c2cccnc2N)C1 [Compound 49, tert-Butyl(S)-(1-(12-(2-aminonicotinamido)dodecyl)pyrrolidin-3-yl)carbamate] |  |  |  |  |  |  |  |  |  |  | 8.93% | 8.02% | 7.48% | 4.09% | -22.6% | 100% | 100% | 100% | 100% | 100% |
| Cl.Nc1ncccc1C(=O)NCCCCCCCCCCCCN1CC[C@H](N)C1 [Compound 50, (S)-2-Amino-N-(12-(3-aminopyrrolidin-1-yl)dodecyl) nicotinamide hydrochloride] | 9.20% |  |  |  |  | 100.00% | 100.00% | 100.00% | 100.00% | 100.00% |  |  |  |  |  |  |  |  |  |  |
| CC1CN(CCCCCCCCCCCCNC(=O)c2cccnc2N)CC(C)O1 (centres unmarked) [Compound 21, 2-Amino-N-(12-(2,6-dimethylmorpholino)dodecyl) nicotinamide] |  |  | 3.70% |  |  | 100.00% | 100.00% | 100.00% | 100.00% | 100.00% |  |  |  |  |  |  |  |  |  |  |
| CN(C)CCN1CCN(CCCCCCCCCCCCNC(=O)c2cccnc2N)CC1 [Compound 33, 2-Amino-N-(12-(4-(2-(dimethylamino)ethyl)piperazin-1-yl)dodecyl) nicotinamide] |  | 4.32% | 3.35% | 2.66% | −36.05% | 100.00% | 100.00% | 100.00% | 100.00% | 100.00% |  |  |  |  |  |  |  |  |  |  |
| CC1CNCCN1CCCCCCCCCCCCNC(=O)c1cccnc1N (centres unmarked) [Compound 35, 2-Amino-N-(12-(2-methylpiperazin-1-yl)dodecyl) nicotinamide] |  | 0.64% | 0.42% |  |  | 100.00% | 100.00% | 100.00% | 100.00% | 100.00% |  |  |  |  |  |  |  |  |  |  |
| Cc1ccc(OC2CCN(CCCCCCCCCCCCNC(=O)c3cccnc3N)CC2)cc1 [Compound 51, 2-Amino-N-(12-(4-(p-tolyloxy)piperidin-1-yl)dodecyl) nicotinamide] |  |  | 0.89% | 0.48% | 0.77% |  | 100.00% | 100.00% | 100.00% | 100.00% |  |  |  |  |  |  |  |  |  |  |
| Nc1ncccc1C(=O)NCCCCCCCCCCCCN1CCC(F)C1 (centres unmarked) [Compound 26, 2-Amino-N-(12-(3-fluoropyrrolidin-1-yl)dodecyl) nicotinamide] | 1.70% |  | 0.05% |  |  | 100.00% | 100.00% | 100.00% | 100.00% | 100.00% |  |  |  |  |  |  |  |  |  |  |
| CC1CCN(CCCCCCCCCCCCNC(=O)c2cccnc2N)C1 (centres unmarked) [Compound 24, 2-Amino-N-(12-(3-methylpyrrolidin-1-yl)dodecyl) nicotinamide] |  |  | 0.62% |  |  | 100.00% | 100.00% | 100.00% | 100.00% | 100.00% |  |  |  |  |  |  |  |  |  |  |
| Cc1ccc(C2CCN(CCCCCCCCCCCCNC(=O)c3cccnc3N)CC2)cc1 [Compound 55, 2-Amino-N-(12-(4-(p-tolyl)piperidin-1-yl)dodecyl) nicotinamide] |  |  | 1.10% | 0.97% |  | 100.00% | 100.00% | 100.00% | 100.00% | 100.00% |  |  |  |  |  |  |  |  |  |  |
| Nc1ncccc1C(=O)NCCCCCCCCCCCCN1CCC(Oc2ccncc2)CC1 [Compound 38, 2-Amino-N-(12-(4-(pyridin-4-yloxy)piperidin-1-yl)dodecyl) nicotinamide] |  | 3.30% |  |  |  | 100.00% | 100.00% | 100.00% | 100.00% | 100.00% |  |  |  |  |  |  |  |  |  |  |
| CN1CCN(C2CCN(CCCCCCCCCCCCNC(=O)c3cccnc3N)CC2)CC1 [Compound 124, 2-Amino-N-(12-(4-(4-methylpiperazin-1-yl)piperidin-1-yl)dodecyl) nicotinamide] | 30.43% | 30.70% | 32.10% | 31.72% | 0.00% | 20.00% | 30.00% | 100.00% | 100.00% | 100.00% |  |  |  |  |  |  |  |  |  |  |
| CN(C)C1CCN(CCCCCCCCCCCCNC(=O)c2cccnc2N)C1 (centres unmarked) [Compound 19, 2-Amino-N-(12-(3-(dimethylamino)pyrrolidin-1-yl)dodecyl) nicotinamide] | 8.51% | 7.51% | 5.98% | 5.08% | −14.40% | 100.00% | 100.00% | 100.00% | 100.00% | 100.00% |  |  |  |  |  |  |  |  |  |  |
